From patent publication US9884874B2, “Bromodomain-inhibiting compounds and pharmaceutical composition comprising same for preventing or treating a cancer” (KAINOS MEDICINE, INC., priority 2014, dated 2018)

What was measured:
[1] = tested on: NCI-H526 (variant small cell lung cancer); assay: Anti-proliferative activity, NCI-H526; format: cell-based; conditions: Homo sapiens, read-out: Cell proliferation, IC50
[2] = Pharmacokinetics in beagle dogs; format: in vivo; conditions: plasma, dog, 3 mg/kg
Procedure: (§1) For serum compound analysis, blood samples were collected by cardiac puncture over 24 hr time course. 20 μL of spiked plasma was added into a 96-well plate, adding ten volumes of internal standard (IS) in acetonitrile (ACN) to the obtained precipitated protein mixed thoroughly, centrifuged at 4,000 rpm for 10 min. 150 μL of supernatant thus obtained was transferred to another pre-labeled 96-well plate, mixed with 150 μL of water. 5 μL or 10 μL of the mixture was injected into the LC-MS system under the following conditions:
(§2) Column: API-4000+Waters UPLC (TCLM08);
(§3) Lower limit of quantification (LLOQ) was at 1 ng/mL. Pharmacokinetic parameters of half-life (T1/2), clearance (CL), maximum plasma concentration (Cmax), mean residence time (MRT) and bioavailability (F %), plasma exposure (AUC) of the compound were calculated using Phoenix WinNonlin 6.3 (non-compartmental model).
Further, pharmacokinetics of Compound 1 in dog was evaluated in beagle dogs following IV administration at 3 mg/kg and PO administration at 3 mg/kg dose level, respectively.

MDA-MB-435 (breast) = assay: Anti-proliferative activity, MDA-MB-435; format: cell-based; conditions: Homo sapiens, read-out: Cell proliferation, IC50
[3] = tested on: MV4-11 (human leukemia cell line); assay: Anti-proliferative activity test (CellTiter-Glo), MV4-11; format: cell-based; conditions: second value of LnCAP/MV4-11 cell, read-out: Cell proliferation IC50 (MV4-11)
Procedure: (§4) IC50 (uM) of the compounds obtained in Examples 1 to 18 against hematological cancer cells and solid tumors was measured for identifying anti-proliferative activities.
(§5) A human prostatic adenocarcinoma cell line, LnCAP (ATCC®, CRL-1740) and human leukemia cell line MV4-11 (ATCC®, CRL-9591) were used to test the degrees of the compounds 1 to 18 in inhibiting the cancer cell growth. The testing cell concentration was adjusted to 6.7×10^3 cells/ml with a culture medium supplemented with 10% FBS, in the temperature of 37° C., 5% CO2 and 95% humidity. Culture media and FBS were purchased from GIBCO. 90 μL of cell suspensions thus obtained was added to two 96-well plates with the final cell density of 600 cells/well, followed by addition of 10 μL of culture medium to each well of plate. The plates were incubated overnight in a humidified incubator at 37° C. with 5% CO2.
(§6) Compounds 1 to 18 were each dissolved with dimethylsulfoxide (DMSO) or phosphate buffer solution (PBS) as a stock solution, and 200× solutions of test compound (2 mM) using DMSO were prepared. Then, the DMSO solution thus obtained was diluted 20-fold with culture medium or PBS to obtain 10× working solution. 10 μL of 10× working solution (drug solution) was dispensed to each well (triplicate for each concentration). The final concentration of DMSO in culture medium was 0.5% [v/v].
(§7) Cell viability was determined using CellTiter-Glo® (CTG) assay. 100 μL of CellTiter-Glo® was added to the equal volume of the cultured cells to read luminescence in EnVision Multi Label Reader.

[4] = tested on: MOLT-4 (acute lymphoblastic leukemia); assay: Anti-proliferative activity, MOLT-4; format: cell-based; conditions: Homo sapiens, read-out: Cell proliferation, IC50
[5] = tested on: HL60 (acute promyelocytic leukemia); assay: Anti-proliferative activity, HL60; format: cell-based; conditions: Homo sapiens, HL-60, read-out: Cell proliferation, IC50
[6] = Body weight change in MV4-11 xenograft mice; format: in vivo, NOD/SCID mice; conditions: 50 and 100 mpk, PO
Procedure: A total of 48 NOD/SCID female mice of 6-8 weeks age and weighing approximately 18 to 22 g, purchased from HFK (Beijing HFK Bio-Technology Co. Ltd.), were used for tumor inoculation.
Each mouse was inoculated subcutaneously at the right flank with MV4-11 tumor cells (1×10^7 cells) in mixture of 100 ul PBS and 100 ul of Matrigel™ for tumor development. A total of […] mice were used for each group. The amounts of treated compounds are represented in milligram (mg) of compound per kilogram (kg) of animal body weight (mg/kg, mpk). Administration route of the test compound was PO (oral) injection. Three groups, i.e., vehicle group (Control group), 50 mpk group (treatment at 50 mpk of compound 1 through PO injection) and 100 mpk group (treatment at 100 mpk of compound 1 through PO injection) of mice were used. The overall administration schedule was 2 cycles of treatment for 5 days (5 d ON), followed by 2 days of non-treatment (2 d OFF).

[7] = Animal pharmacokinetics in ICR mice; format: in vivo; conditions: mouse; for AUC / MRT / clearance / bioavailability: ICR, in vivo
Procedure: Pharmacokinetics of the compounds of 1, 2, 7, 8 11 and 15 were evaluated in ICR mice (6˜8 weeks, 20˜25 g) following intravenous (IV) administration at 10 mg/kg and per oral (PO) administration at 10 mg/kg dose level, respectively. Especially, the additional dose level of Compound 1 was 30 mg/kg.
as §1, §2, §3

[8] = tested on: LnCAP (human prostatic adenocarcinoma cell line); assay: Anti-proliferative activity test (CellTiter-Glo), LnCAP; format: cell-based; conditions: first value of LnCAP/MV4-11 cell, read-out: Cell proliferation IC50 (LnCAP)
Procedure: as §4, §5, §6, §7

SK-LU-1 (adenocarcinoma) = assay: Anti-proliferative activity, SK-LU-1; format: cell-based; conditions: Homo sapiens, SKLU-1 (Adenocarcinoma), read-out: Cell proliferation, IC50
Daudi (B lymphoma) = assay: Anti-proliferative activity, Daudi; format: cell-based; conditions: Homo sapiens, read-out: Cell proliferation, IC50
OPM-2 (multiple myeloma) = assay: Anti-proliferative activity, OPM-2; format: cell-based; conditions: Homo sapiens, read-out: Cell proliferation, IC50
[9] = tested on: RS4;11 (acute lymphoblastic leukemia); assay: Anti-proliferative activity, RS4;11; format: cell-based; conditions: Homo sapiens, read-out: Cell proliferation, IC50

COc1ccc2c(c1)C(c1ccc(Cl)cc1)=N[C@@H](COS(C)(=O)=O)c1nnc(C)n1-2 [Compound 1, (R)-(6-(4-chlorophenyl)-8-methoxy-1-methyl-4H-benzo[f]-[1,2,4]triazolo[4,3-a][1,4]diazepin-4-yl)methyl methanesulfonate]
IC50 [1]: 2620 nM | AUC ([2]; IV): 19.7 µM·h | MRT ([2]; IV): 4.9 h | clearance ([2]; IV): 5.6 mL/min/kg | AUC ([2]; PO): 17.3 µM·h | bioavailability ([2]; PO): 92.3% | IC50 (MDA-MB-435 (breast)): 5990 nM | IC50 [3]: 310 nM | IC50 [4]: 2630 nM | IC50 [5]: 1240 nM | BW change (%) (in words) [6]: very low | AUC ([7]; IV, 10 mg/kg): 74 µM·h | MRT ([7]; IV, 10 mg/kg): 4.7 h | clearance ([7]; IV, 10 mg/kg): 5.1 mL/min/kg | AUC ([7]; IV, 30 mg/kg): 302 µM·h | clearance ([7]; IV, 30 mg/kg): 3.7 mL/min/kg | AUC ([7]; PO, 10 mg/kg): 76 µM·h | MRT ([7]; PO, 10 mg/kg): 6.2 h | bioavailability ([7]; PO, 10 mg/kg): 103% | AUC ([7]; PO, 30 mg/kg): 260 µM·h | bioavailability ([7]; PO, 30 mg/kg): 86.2% | dose linearity in plasma exposure (in words) ([7]; FIG. 1, 10 and 30 mg/kg): good dose linearity in plasma exposure | IC50 [8]: 470 nM | IC50 (SK-LU-1 (adenocarcinoma)): 6960 nM | IC50 (Daudi (B lymphoma)): 5090 nM | IC50 (OPM-2 (multiple myeloma)): 1450 nM | IC50 [9]: 3140 nM
